The source of these data is the NIST ThermoML archive (doi:10.1016/j.jct.2006.03.017).

For series [1] the following is noted: Liquid.
The nature of series [2]: refractive index (Na D-line) (dimensionless). To be noted: 293.15 K; 101.33 kPa; Liquid; Standard Abbe refractometry.

Numbers after ± are expanded uncertainties.

Broadly, the mass density is mass per unit of volume. A word on the vapor or sublimation pressure: it is the equilibrium pressure above the liquid or solid. In general, refractive index refers to a measure of how strongly the sample bends light.

For `CCCCCCCC/C=C\CCCCCCCCO` [(Z)-9-octadecen-1-ol], the mass density in series [1] (293.15 K, 101.33 kPa) is 848.5 ± 44 kg/m3. In addition, in series [1] (480.05 K, Distillation), the “vapor or sublimation pressure” value is listed as 2 kPa. For the same compound, the refractive index in series [2] was found to be 1.4603 ± 0.0032.
